In ChEMBL document CHEMBL1201862, “PubChem BioAssay data set” (2004):
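Cells were grown in 96-well plates and exposed to each compound for 48 hours at five concentrations; endpoints were interpolated linearly between bracketing concentrations, or set to the highest concentration if not reached. GI50 = concentration required for 50% inhibition of growth.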 Active and inactive are the calls of the source. No stated cut-off is given here; in the data, active = GI50 up to about 1.1 µM and inactive = higher. Where a SMILES comes first, the peptide text is derived from it. [ ]: non-standard residue; d: D form. The star is where a group is joined. Bn2Val = CC(C)[C@@H](C(=O)*)N(Cc1ccccc1)Cc1ccccc1; NHPiperonyl = c1cc2c(cc1CN*)OCO2; NMeV = CN[C@H](C(=O)O)C(C)C; dNMeA = CN[C@H](C)C(=O)O

Key:
Test in all cases: NCI-60 cell line screen, 48 h
HOP-92 = system: HOP-92
RXF 393 = system: RXF 393
NCI-H522 = system: NCI-H522
COLO 205 = system: COLO 205
A498 = system: A498
OVCAR-8 = system: OVCAR-8
HCT-116 = system: HCT-116
SR = system: SR
TK-10 = system: TK-10
A549 = system: A549
CCRF-CEM = system: CCRF-CEM
NCI-H23 = system: NCI-H23
BT-549 = system: BT-549
M14 = system: M14
HT-29 = system: HT-29
K562 = system: K562
SF-268 = system: SF-268
SNB-75 = system: SNB-75
T47D = system: T47D

| SMILES | GI50 (HOP-92) | GI50 (RXF 393) | GI50 (NCI-H522) | GI50 (COLO 205) | GI50 (A498) | GI50 (OVCAR-8) | GI50 (HCT-116) | GI50 (SR) | GI50 (TK-10) | GI50 (A549) | GI50 (CCRF-CEM) | GI50 (NCI-H23) | GI50 (BT-549) | GI50 (M14) | GI50 (HT-29) | GI50 (K562) | GI50 (SF-268) | GI50 (SNB-75) | GI50 (T47D) |
| --- | --- | --- | --- | --- | --- | --- | --- | --- | --- | --- | --- | --- | --- | --- | --- | --- | --- | --- | --- |
| CCC1(CCSC(=N)N)C(=O)NC(=O)NC1=O | > 100 µM (inactive) | > 100 µM (inactive) | > 100 µM (inactive) | > 100 µM (inactive) | > 100 µM (inactive) | > 100 µM (inactive) | > 100 µM (inactive) | > 100 µM (inactive) | > 100 µM (inactive) | > 100 µM (inactive) | > 100 µM (inactive) | > 100 µM (inactive) | > 100 µM (inactive) | > 100 µM (inactive) | > 100 µM (inactive) | > 100 µM (inactive) | > 100 µM (inactive) | – | – |
| O=[N+]([O-])/C=C/c1cn(CCCCCCCCCCCCn2cc(/C=C/[N+](=O)[O-])c3ccccc32)c2ccccc12 | > 100 µM (inactive) | – | > 100 µM (inactive) | > 100 µM (inactive) | > 100 µM (inactive) | > 100 µM (inactive) | > 100 µM (inactive) | > 100 µM (inactive) | > 100 µM (inactive) | > 100 µM (inactive) | > 100 µM (inactive) | > 100 µM (inactive) | > 100 µM (inactive) | > 100 µM (inactive) | > 100 µM (inactive) | – | – | – | – |
| CCCCN(CCCC)C(=O)C(=O)C(C(=O)C(=O)OC)c1nc2ccccc2o1 (configuration not stated) | > 100 µM (inactive) | 17.5 µM (inactive) | > 100 µM (inactive) | > 100 µM (inactive) | > 100 µM (inactive) | > 100 µM (inactive) | 67.9 µM (inactive) | 48.8 µM (inactive) | > 100 µM (inactive) | > 100 µM (inactive) | 34.8 µM (inactive) | > 100 µM (inactive) | – | > 100 µM (inactive) | > 100 µM (inactive) | 65.9 µM (inactive) | > 100 µM (inactive) | > 100 µM (inactive) | – |
| CN(C)CC(NC(NCS)C(=O)NCCNc1ccc(NCCNC(=O)C(NCS)NC(CN(C)C)OCCl)c2c1C(=O)c1c(O)ccc(O)c1C2=O)OCCl (configuration not stated) | – | – | – | 1.34 µM (inactive) | 0.0635 µM (active) | 0.00377 µM (active) | 0.0249 µM (active) | – | 0.619 µM (active) | < 0.001 µM (active) | – | 0.00877 µM (active) | – | 0.124 µM (active) | 0.0261 µM (active) | 0.00678 µM (active) | 0.0557 µM (active) | 0.0318 µM (active) | 0.0327 µM (active) |
| C/C(=N/NC(=S)N1CCCCC1)c1cccc(/C(C)=N\NC(=S)N2CCCCC2)n1 | – | 2.26 µM (inactive) | 1.77 µM (inactive) | 2.43 µM (inactive) | 1.69 µM (inactive) | 1.67 µM (inactive) | 1.74 µM (inactive) | 2.07 µM (inactive) | 1.8 µM (inactive) | 3 µM (inactive) | 3 µM (inactive) | 3.93 µM (inactive) | 1.92 µM (inactive) | 1.94 µM (inactive) | 2.51 µM (inactive) | 2.28 µM (inactive) | 3.22 µM (inactive) | 2.62 µM (inactive) | – |
| CN1CCC2(CC1)/C(=N/C1CCCCC1)NC(=O)N2c1ccccc1 | 43.7 µM (inactive) | > 100 µM (inactive) | – | > 100 µM (inactive) | > 100 µM (inactive) | > 100 µM (inactive) | > 100 µM (inactive) | > 100 µM (inactive) | > 100 µM (inactive) | > 100 µM (inactive) | > 100 µM (inactive) | > 100 µM (inactive) | – | > 100 µM (inactive) | > 100 µM (inactive) | – | > 100 µM (inactive) | > 100 µM (inactive) | > 100 µM (inactive) |
| COc1cc(Cn2c3c(c4c(CN(C)C)c(O)ccc42)C(=O)c2ccccc2C3=O)cc(OC)c1 | – | – | – | 25.5 µM (inactive) | 10.1 µM (inactive) | 14.6 µM (inactive) | 13.6 µM (inactive) | 10.3 µM (inactive) | 28.7 µM (inactive) | 15.1 µM (inactive) | 24.3 µM (inactive) | 15.7 µM (inactive) | – | 17.2 µM (inactive) | 26.9 µM (inactive) | 14 µM (inactive) | 14.8 µM (inactive) | 0.414 µM (active) | 15.4 µM (inactive) |
| CN(C)CCCNC(=O)c1c(-c2cccnc2)cnc2ccccc12 | > 100 µM (inactive) | > 100 µM (inactive) | > 100 µM (inactive) | > 100 µM (inactive) | – | > 100 µM (inactive) | > 100 µM (inactive) | > 100 µM (inactive) | > 100 µM (inactive) | > 100 µM (inactive) | > 100 µM (inactive) | > 100 µM (inactive) | > 100 µM (inactive) | > 100 µM (inactive) | > 100 µM (inactive) | > 100 µM (inactive) | > 100 µM (inactive) | 14.9 µM (inactive) | – |
| COC(C/C(=C/CO[Si](C(C)C)(C(C)C)C(C)C)C(=O)N(C(=O)OC(C)(C)C)c1ccccc1I)OC | 2.16 µM (inactive) | – | 2.77 µM (inactive) | 67.5 µM (inactive) | > 100 µM (inactive) | > 100 µM (inactive) | 11.8 µM (inactive) | 34.4 µM (inactive) | 49 µM (inactive) | 28.8 µM (inactive) | > 10 µM (inactive) | 39.7 µM (inactive) | – | 47.2 µM (inactive) | > 100 µM (inactive) | > 100 µM (inactive) | > 100 µM (inactive) | > 100 µM (inactive) | 36.8 µM (inactive) |
| CN(C)N1C(=O)SCC(c2ccccc2)(c2ccccc2)C1=O | > 100 µM (inactive) | > 100 µM (inactive) | 84.5 µM (inactive) | > 100 µM (inactive) | > 100 µM (inactive) | > 100 µM (inactive) | > 100 µM (inactive) | > 100 µM (inactive) | > 100 µM (inactive) | 68.2 µM (inactive) | > 100 µM (inactive) | > 100 µM (inactive) | – | > 100 µM (inactive) | > 100 µM (inactive) | 87.7 µM (inactive) | > 100 µM (inactive) | 60.1 µM (inactive) | > 100 µM (inactive) |
| CC(C)[C@H](NC(=O)[C@H](C(C)C)N(Cc1ccccc1)Cc1ccccc1)C(=O)N(C)[C@H](C(=O)N1CCC[C@H]1C(=O)N(C)[C@H](C)C(=O)NCc1ccc2c(c1)OCO2)C(C)C (Bn2Val-V[NMeV]P[dNMeA]-NHPiperonyl) | – | – | 14.7 µM (inactive) | 2.15 µM (inactive) | – | 8.61 µM (inactive) | 3.48 µM (inactive) | – | 18.3 µM (inactive) | 15.6 µM (inactive) | 2.56 µM (inactive) | 16.8 µM (inactive) | 13.2 µM (inactive) | 25.5 µM (inactive) | 3.03 µM (inactive) | 2.59 µM (inactive) | 17.7 µM (inactive) | – | – |
| S=C(c1c[nH]c2ccccc12)N1CCN(Cc2ccccc2)CC1 | – | 16.1 µM (inactive) | – | 16.5 µM (inactive) | 19.2 µM (inactive) | 19.1 µM (inactive) | 15.7 µM (inactive) | 20.2 µM (inactive) | 26.4 µM (inactive) | – | 27.2 µM (inactive) | 19.3 µM (inactive) | 14.7 µM (inactive) | 14 µM (inactive) | 16.5 µM (inactive) | 27.1 µM (inactive) | 19.5 µM (inactive) | 15.5 µM (inactive) | – |
| CC(=O)NC(=O)/N=C1\NCCC(=O)N1CCc1c[nH]c2ccccc12 | > 100 µM (inactive) | > 100 µM (inactive) | > 100 µM (inactive) | > 100 µM (inactive) | > 100 µM (inactive) | > 100 µM (inactive) | > 100 µM (inactive) | – | > 100 µM (inactive) | > 100 µM (inactive) | > 100 µM (inactive) | > 100 µM (inactive) | – | > 100 µM (inactive) | > 100 µM (inactive) | > 100 µM (inactive) | > 100 µM (inactive) | – | > 100 µM (inactive) |
| CC1(C)O[C@H]2OC(CO)C(OS(C)(=O)=O)[C@H]2O1 (some centres not stated) | > 100 µM (inactive) | – | 48.1 µM (inactive) | > 100 µM (inactive) | > 100 µM (inactive) | > 100 µM (inactive) | > 100 µM (inactive) | – | > 100 µM (inactive) | > 100 µM (inactive) | > 100 µM (inactive) | > 100 µM (inactive) | – | > 100 µM (inactive) | > 100 µM (inactive) | – | > 100 µM (inactive) | > 100 µM (inactive) | > 100 µM (inactive) |
| CC(=O)N(CN1C(=O)CCC1C(=O)O)c1ccc(C)cc1 (configuration not stated) | > 100 µM (inactive) | – | > 100 µM (inactive) | > 100 µM (inactive) | > 100 µM (inactive) | > 100 µM (inactive) | > 100 µM (inactive) | – | > 100 µM (inactive) | > 100 µM (inactive) | > 100 µM (inactive) | > 100 µM (inactive) | – | > 100 µM (inactive) | > 100 µM (inactive) | > 100 µM (inactive) | > 100 µM (inactive) | > 100 µM (inactive) | > 100 µM (inactive) |
| O=c1[nH]n(Cc2ccccc2Cl)c2ccccc12 | 62.4 µM (inactive) | > 10 µM (inactive) | > 100 µM (inactive) | > 100 µM (inactive) | > 100 µM (inactive) | > 100 µM (inactive) | > 100 µM (inactive) | > 100 µM (inactive) | > 100 µM (inactive) | > 100 µM (inactive) | > 100 µM (inactive) | > 100 µM (inactive) | – | > 100 µM (inactive) | > 100 µM (inactive) | > 100 µM (inactive) | 40.6 µM (inactive) | 45.5 µM (inactive) | – |
| C=C[C@@H]1OC(=O)O[C@H]1CO | – | – | – | > 100 µM (inactive) | > 100 µM (inactive) | > 100 µM (inactive) | > 100 µM (inactive) | > 100 µM (inactive) | > 100 µM (inactive) | > 100 µM (inactive) | > 100 µM (inactive) | > 100 µM (inactive) | – | > 100 µM (inactive) | > 100 µM (inactive) | > 100 µM (inactive) | > 100 µM (inactive) | > 100 µM (inactive) | – |
